smiles,measurement,setting,value
O=C(OCCO)c1ccc(C(=O)OCCO)cc1,solubility (mole fraction),"in ethanol, 283.15 K",0.000577
same,solubility (mole fraction),"in ethanol, 288.15 K",0.000802
same,solubility (mole fraction),"in ethanol, 293.15 K",0.00113
same,solubility (mole fraction),"in ethanol, 298.15 K",0.00141
same,solubility (mole fraction),"in ethanol, 303.15 K",0.00169
same,solubility (mole fraction),"in ethanol, 308.15 K",0.00249
same,solubility (mole fraction),"in ethanol, 313.15 K",0.00315
same,solubility (mole fraction),"in ethanol, 318.15 K",0.00395
same,solubility (mole fraction),"in ethanol, 323.15 K",0.00521
same,solubility (mole fraction),"in ethanol, 328.15 K",0.00656
same,solubility (mole fraction),"in ethylene glycol, 283.15 K",0.000174
same,solubility (mole fraction),"in ethylene glycol, 288.15 K",0.000264
same,solubility (mole fraction),"in ethylene glycol, 293.15 K",0.000391
same,solubility (mole fraction),"in ethylene glycol, 298.15 K",0.000554
same,solubility (mole fraction),"in ethylene glycol, 303.15 K",0.000859
same,solubility (mole fraction),"in ethylene glycol, 308.15 K",0.00118
same,solubility (mole fraction),"in ethylene glycol, 313.15 K",0.0018
same,solubility (mole fraction),"in ethylene glycol, 318.15 K",0.00255
same,solubility (mole fraction),"in ethylene glycol, 323.15 K",0.0037
same,solubility (mole fraction),"in ethylene glycol, 328.15 K",0.00499
same,solubility (mole fraction),"in methanol, 283.15 K",0.000772
same,solubility (mole fraction),"in methanol, 288.15 K",0.00104
same,solubility (mole fraction),"in methanol, 293.15 K",0.00142
same,solubility (mole fraction),"in methanol, 298.15 K",0.00184
same,solubility (mole fraction),"in methanol, 303.15 K",0.00238
same,solubility (mole fraction),"in methanol, 308.15 K",0.00329
same,solubility (mole fraction),"in methanol, 313.15 K",0.00404
same,solubility (mole fraction),"in methanol, 318.15 K",0.00517
same,solubility (mole fraction),"in methanol, 323.15 K",0.00656
same,solubility (mole fraction),"in methanol, 328.15 K",0.00815
same,solubility (mole fraction),"in water, 283.15 K",1.7e-05
same,solubility (mole fraction),"in water, 288.15 K",2.4e-05
same,solubility (mole fraction),"in water, 293.15 K",3.2e-05
same,solubility (mole fraction),"in water, 298.15 K",4.2e-05
same,solubility (mole fraction),"in water, 303.15 K",5.8e-05
same,solubility (mole fraction),"in water, 308.15 K",7.7e-05
same,solubility (mole fraction),"in water, 313.15 K",9.6e-05
same,solubility (mole fraction),"in water, 318.15 K",0.000132
same,solubility (mole fraction),"in water, 323.15 K",0.000171
same,solubility (mole fraction),"in water, 328.15 K",0.000221
